{"source": "PubChem BioAssay AID1117278", "about": "(The Scripps Research Institute Molecular Screening Center, 2014)", "test_system": "P. falciparum stage V gametocytes, BacTiter-Glo ATP, 24 h", "assay": "viability inhibitors of stage V gametocytes – luminescence, dose response (AID 1117278)", "note": "Activity calls are given as the source filed them. No rule for the calls is given here."}
{"smiles": "O=C(C[N+]12CCC(CC1)C(OC(=O)c1ccccc1)C2)c1ccc([N+](=O)[O-])cc1", "note": "(stereo unspecified)", "values": [{"measurement": "IC50", "value": "> 109 µM (inactive)"}]}
